From the supplement of paper PMC11451515

Key:
SEM cells [1] = test: cell viability relative to DMSO control; higher = less cytotoxic; details: 48 h
In short: (§1)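 Leukemia cells (NOMO1 or SEM, 500 cells/well; P12-Ichikawa, 1000 cells/well) were seeded in 5 μl in 1536-well plates after at least four passages of adaptation to each medium. They received library compounds in DMSO by pin dosing, 11 threefold points from 47 μM to 0.79 nM. Luminescence with CellTiter-Glo One was read after 48 h at 37°C. Viability is stated per plate relative to DMSO wells, with cell-free wells as background.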

P12-Ichikawa [2] = test: as above; details: 48 h
In short: as §1

SEM cells [3] = test: AUC of viability dose-response curve (% viability x log10 dose units); higher = less sensitive; details: 48 h
In short: (§2)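 Medium-adapted leukemia cells in 1536-well plates, at 500 or 1000 cells/well, were incubated for 48 h at 37°C with library compounds in DMSO at 11 threefold doses from 47 μM to 0.79 nM. CellTiter-Glo One luminescence normalised per plate to DMSO and cell-free wells was fitted with a four-parameter log-logistic model over log10 doses. Area under the curve was integrated from this fit by trapezoidal rule, with curves beyond full viability scaled and failed quality-control curves removed.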

P12-Ichikawa [4] = test: as above; details: 48 h
In short: as §2

NOMO1 [5] = test: as above; details: 48 h
In short: as §2

NOMO1 [6] = test: cell viability relative to DMSO control; higher = less cytotoxic; details: HPLM + 10% dialyzed FBS, 48 h
In short: as §1

CC1SC/2=C(C(O)=O)/C(=O)C3=CC(=C(C=C3N12)N4CCN(CC4)C\C5=C(C)\OC(=O)O5)F (centres undefined)
cell viability [%]
Details	HPLM + 10% dialyzed FBS	RPMI 5 mM glucose + 10% FBS	RPMI 5 mM glucose + 10% dialyzed FBS
P12-Ichikawa [2], 0.000781 µM	134	–	–
P12-Ichikawa [2], 0.00234 µM	122	–	–
P12-Ichikawa [2], 0.00702 µM	121	–	–
P12-Ichikawa [2], 0.0211 µM	124	–	–
P12-Ichikawa [2], 0.0632 µM	125	–	–
P12-Ichikawa [2], 0.19 µM	123	–	–
P12-Ichikawa [2], 0.569 µM	119	–	–
P12-Ichikawa [2], 1.71 µM	117	–	–
P12-Ichikawa [2], 5.12 µM	113	–	–
P12-Ichikawa [2], 15.4 µM	112	–	–
P12-Ichikawa [2], 46.1 µM	102	–	–
SEM cells [1], 0.000781 µM	–	61.5	47.8
SEM cells [1], 0.00234 µM	–	119	125
SEM cells [1], 0.00702 µM	–	128	143
SEM cells [1], 0.0211 µM	–	121	130
SEM cells [1], 0.0632 µM	–	124	133
SEM cells [1], 0.19 µM	–	123	102
SEM cells [1], 0.569 µM	–	132	140
SEM cells [1], 1.71 µM	–	111	126
SEM cells [1], 5.12 µM	–	121	115
SEM cells [1], 15.4 µM	–	114	116
SEM cells [1], 46.1 µM	–	112	104

AUC of viability dose-response curve
Details	NOMO1 [5]	P12-Ichikawa [4]	SEM cells [3]
HPLM + 10% dialyzed FBS	413	437	472
RPMI 5 mM glucose + 10% FBS	456	449	442
RPMI 5 mM glucose + 10% dialyzed FBS	443	449	449

C\C1=N\N=C(\C2=CC=C(N)C=C2)C3=CC4=C(OCO4)C=C3C1
SEM cells [1], HPLM + 10% dialyzed FBS
Details	cell viability [%]
0.000781 µM	129
0.00234 µM	115
0.00702 µM	122
0.0211 µM	136
0.0632 µM	126
0.19 µM	123
0.569 µM	131
1.71 µM	131
5.12 µM	150
15.4 µM	138
46.1 µM	107

AUC of viability dose-response curve
Details	NOMO1 [5]	P12-Ichikawa [4]	SEM cells [3]
HPLM + 10% dialyzed FBS	471	469	467
RPMI 5 mM glucose + 10% FBS	471	465	470
RPMI 5 mM glucose + 10% dialyzed FBS	464	465	464

N[C@@H](C(=O)N[C@H]1[C@H]2SC\C(=C(/N2C1=O)C(O)=O)Cl)C3=CC=CC=C3
cell viability [%], SEM cells [1]
Details	HPLM + 10% dialyzed FBS	RPMI 5 mM glucose + 10% dialyzed FBS
0.000781 µM	104	119
0.00234 µM	101	135
0.00702 µM	118	117
0.0211 µM	108	149
0.0632 µM	117	137
0.19 µM	110	126
0.569 µM	118	147
1.71 µM	108	150
5.12 µM	115	120
15.4 µM	128	131
46.1 µM	132	129

Details	AUC of viability dose-response curve	cell viability [%]
NOMO1 [5], HPLM + 10% dialyzed FBS	462	–
NOMO1 [5], RPMI 5 mM glucose + 10% FBS	430	–
NOMO1 [5], RPMI 5 mM glucose + 10% dialyzed FBS	441	–
NOMO1 [6], 0.000781 µM	–	123
NOMO1 [6], 0.00234 µM	–	124
NOMO1 [6], 0.00702 µM	–	125
NOMO1 [6], 0.0211 µM	–	136
NOMO1 [6], 0.0632 µM	–	150
NOMO1 [6], 0.19 µM	–	119
NOMO1 [6], 0.569 µM	–	126
NOMO1 [6], 1.71 µM	–	108
NOMO1 [6], 5.12 µM	–	134
NOMO1 [6], 15.4 µM	–	145
NOMO1 [6], 46.1 µM	–	135
P12-Ichikawa [4], HPLM + 10% dialyzed FBS	462	–
P12-Ichikawa [4], RPMI 5 mM glucose + 10% FBS	457	–
P12-Ichikawa [4], RPMI 5 mM glucose + 10% dialyzed FBS	466	–
SEM cells [3], HPLM + 10% dialyzed FBS	436	–
SEM cells [3], RPMI 5 mM glucose + 10% FBS	465	–
SEM cells [3], RPMI 5 mM glucose + 10% dialyzed FBS	468	–

NC(=O)c1cccc(-c2cccc(OC(=O)NC3CCCCC3)c2)c1
cell viability [%], SEM cells [1]
Details	HPLM + 10% dialyzed FBS	RPMI 5 mM glucose + 10% FBS
0.000781 µM	110	116
0.00234 µM	125	119
0.00702 µM	128	120
0.0211 µM	133	120
0.0632 µM	124	119
0.19 µM	38.4	33
0.569 µM	128	110
1.71 µM	96.5	78.1
5.12 µM	94.7	62.2
15.4 µM	104	78
46.1 µM	96.9	71.5

AUC of viability dose-response curve
Details	NOMO1 [5]	P12-Ichikawa [4]	SEM cells [3]
HPLM + 10% dialyzed FBS	461	413	421
RPMI 5 mM glucose + 10% FBS	473	402	357
RPMI 5 mM glucose + 10% dialyzed FBS	472	380	376

CN1[C@@H]2CCC[C@H]1C[C@@H](NC(=O)c1nn(C)c3ccccc13)C2.Cl
SEM cells [1], HPLM + 10% dialyzed FBS
Details	cell viability [%]
0.000781 µM	112
0.00234 µM	110
0.00702 µM	126
0.0211 µM	115
0.0632 µM	126
0.19 µM	123
0.569 µM	124
1.71 µM	125
5.12 µM	133
15.4 µM	119
46.1 µM	115

AUC of viability dose-response curve
Details	NOMO1 [5]	P12-Ichikawa [4]	SEM cells [3]
HPLM + 10% dialyzed FBS	468	463	468
RPMI 5 mM glucose + 10% FBS	466	444	434
RPMI 5 mM glucose + 10% dialyzed FBS	465	465	457

CN(C)CCN(C)CCc1ccc(Cl)c(Cl)c1
cell viability [%], SEM cells [1]
Details	HPLM + 10% dialyzed FBS	RPMI 5 mM glucose + 10% FBS
0.000781 µM	118	123
0.00234 µM	114	101
0.00702 µM	132	121
0.0211 µM	131	125
0.0632 µM	128	124
0.19 µM	131	133
0.569 µM	127	145
1.71 µM	119	132
5.12 µM	122	127
15.4 µM	114	131
46.1 µM	114	126

AUC of viability dose-response curve
Details	NOMO1 [5]	P12-Ichikawa [4]	SEM cells [3]
HPLM + 10% dialyzed FBS	473	467	466
RPMI 5 mM glucose + 10% FBS	473	465	458
RPMI 5 mM glucose + 10% dialyzed FBS	473	466	451

O=C1CSC(=O)N1C(CCc1ccncc1)COc1ccc(-c2cccc([N+](=O)[O-])c2)cc1 (centres undefined)
cell viability [%]
Details	HPLM + 10% dialyzed FBS	RPMI 5 mM glucose + 10% FBS	RPMI 5 mM glucose + 10% dialyzed FBS
P12-Ichikawa [2], 0.000781 µM	115	122	–
P12-Ichikawa [2], 0.00234 µM	119	134	–
P12-Ichikawa [2], 0.00702 µM	122	116	–
P12-Ichikawa [2], 0.0211 µM	118	107	–
P12-Ichikawa [2], 0.0632 µM	118	114	–
P12-Ichikawa [2], 0.19 µM	115	91.3	–
P12-Ichikawa [2], 0.569 µM	111	99.1	–
P12-Ichikawa [2], 1.71 µM	111	110	–
P12-Ichikawa [2], 5.12 µM	95.7	87.4	–
P12-Ichikawa [2], 15.4 µM	108	93.7	–
P12-Ichikawa [2], 46.1 µM	90.1	82.3	–
SEM cells [1], 0.000781 µM	119	123	105
SEM cells [1], 0.00234 µM	123	118	131
SEM cells [1], 0.00702 µM	109	132	105
SEM cells [1], 0.0211 µM	115	118	123
SEM cells [1], 0.0632 µM	118	112	135
SEM cells [1], 0.19 µM	92.4	117	116
SEM cells [1], 0.569 µM	114	117	128
SEM cells [1], 1.71 µM	95.6	109	117
SEM cells [1], 5.12 µM	111	98.6	106
SEM cells [1], 15.4 µM	112	82.7	116
SEM cells [1], 46.1 µM	79.5	48.9	75.1

AUC of viability dose-response curve
Details	NOMO1 [5]	P12-Ichikawa [4]	SEM cells [3]
HPLM + 10% dialyzed FBS	444	447	427
RPMI 5 mM glucose + 10% FBS	446	394	433
RPMI 5 mM glucose + 10% dialyzed FBS	454	436	467

C[C@H]1O[C@H](O[C@H]2[C@H](O)[C@@H](O)[C@H](O[C@@H]2CO)O[C@H]3[C@H](O)[C@@H](O)C(O)O[C@@H]3CO)[C@H](O)[C@@H](O)[C@@H]1N[C@H]4\C=C(CO)/[C@@H](O)[C@H](O)[C@H]4O (some centres undefined)
AUC of viability dose-response curve
Details	NOMO1 [5]	P12-Ichikawa [4]	SEM cells [3]
HPLM + 10% dialyzed FBS	330	321	437
RPMI 5 mM glucose + 10% FBS	309	335	456
RPMI 5 mM glucose + 10% dialyzed FBS	319	374	432
